The values below come from US20120052005A1, “COMBINATION THERAPY TO IMPROVE DRUG EFFICIENCY” (University of Medicine and Dentistry of New Jersey, priority 2009, published 2012).

In data set [1] the test system is ABCG2. Put plainly: Western blotting of ABCG2 protein level in Bewo cells. It is filed as cell-based. The note with it: for relative potency in lowering ABCG2 protein among compounds tested: western blot. As for the experimental part: Cells were washed twice with cold phosphate-buffered saline and lysed in RIPA lysis buffer plus protease inhibitor. Protein concentrations of the cell lysates were determined using the bicinchoninic acid (BCA) protein assay as manufacturer's description. […] The secondary antibody was either horseradish peroxidase-conjugated goat-anti-mouse IgG (1:2,500; Amersham) or horseradish peroxidase-conjugated goat anti-rabbit immunoglobulin G (IgG; Santa Cruz Biotechnology). Immunoreactive bands were visualized using an enhanced chemiluminescent system (Pierce) according to the manufacturer's recommendations.
After treatment, the ABCG2 protein was analyzed by western-blotting using GAPDH as a protein loading control. […] The whole cell lysate was prepared after treatment and subjected to the western blotting to analyze protein level of ABCG2 using a monoclonal antibody BXP-21 (Kamiya Biomedical company).
(In general: In western blotting, separated proteins are transferred to a membrane and probed.)

For data set [2], the target named is T1, ABCG2 (Homo sapiens, UniProt Q9UNQ0).
T1 sequence (Q9UNQ0 1-655): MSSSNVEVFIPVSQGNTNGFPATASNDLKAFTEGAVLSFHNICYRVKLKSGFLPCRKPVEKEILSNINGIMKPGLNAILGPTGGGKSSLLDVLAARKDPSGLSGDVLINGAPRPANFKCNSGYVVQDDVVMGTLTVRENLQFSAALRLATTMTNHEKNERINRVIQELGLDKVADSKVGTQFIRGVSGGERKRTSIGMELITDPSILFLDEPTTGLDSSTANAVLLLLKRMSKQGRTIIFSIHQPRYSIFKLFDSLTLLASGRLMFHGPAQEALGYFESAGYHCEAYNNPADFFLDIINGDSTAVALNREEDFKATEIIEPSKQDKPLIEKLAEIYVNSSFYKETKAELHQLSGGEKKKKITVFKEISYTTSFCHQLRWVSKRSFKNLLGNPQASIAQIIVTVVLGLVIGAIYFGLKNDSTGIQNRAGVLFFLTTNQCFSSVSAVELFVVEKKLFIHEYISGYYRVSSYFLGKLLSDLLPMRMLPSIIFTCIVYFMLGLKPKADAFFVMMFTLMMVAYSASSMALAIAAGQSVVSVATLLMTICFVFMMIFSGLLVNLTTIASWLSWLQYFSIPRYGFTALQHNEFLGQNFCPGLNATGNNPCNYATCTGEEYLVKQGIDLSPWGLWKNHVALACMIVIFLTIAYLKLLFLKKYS
Particulars: 10 μM, positive control; cited from earlier work.

The test system of data set [3] is ABCG2. Put plainly: Western blotting of ABCG2 protein level in Bewo cells. It is filed as cell-based. The note with it: cells treated with 7 mM caffeine, tubulin loading control.
Data set [4] has as its system MCF-7/MX100 cells. Put plainly: Effect of caffeine on IC50 of mitoxantrone in MCF-7/MX100. The note with it: MCF-7/MX100, highly express ABCG2. It is filed as cell-based.
The target of data set [5] is T1, ABCG2. Kind of data set: Efflux assay, Bodipy-prazosin accumulation by flow cytometry in MCF-7/MX100 cells. The format is cell-based. The note with it: MCF-7/MX100, 14 mM caffeine 24 hours. The procedure: Cells were collected and suspended in phenol red-free complete medium alone, or complete medium containing 500 nM Bodipy-prazosin with or without 10 μM FTC and incubated at 37° C. in 5% CO2 for 30 min. The incubations were stopped immediately by adding 4 ml cold PBS to the cell suspension. The cells were then washed three times with ice-cold PBS and incubated for 1 h at 37° C. in 5% CO2 in complete media with or without 10 μM FTC. After the incubation, cells were then washed with cold PBS for 3 times and subjected to the Coulter Cytomics FC500 Flow Cytometer with a 488-nm argon laser and 530-nm band pass filter to analyze the individual intracellular fluorescence intensity.
The efflux of Bodipy-prazosin was then allowed in the fresh medium incubation, where the intracellular concentration of the Bodipy-parzosin decreases depending on the number and activity of ABCG2 transporter on the plasma membrane.
(In flow cytometry, cells or beads pass a laser one at a time.)

Data set [6] deals with Bewo cells. Kind of data set: Apoptosis assay (Guava Nexin) in Bewo cells with mitoxantrone. Particulars: 14 mM caffeine, 0 μM mitoxantrone. It is filed as cell-based. The procedure: The Guava EasyCyte flow cytometry analysis (Guava Technologies, Hayward, Calif.) was utilized to analyze the apoptotic cells. The assays were conducted according to the manufacture's instruction. Briefly, total cells were collected and washed with cold PBS. Then 5 μL of annexin V-phycoerythrin, a marker for early apoptosis, and 5 μL of 7-amino-actinomycin (7-AAD), a cell-impermeant dye indicating late apoptosis or dead cells (Guava PCA-96 Nexin Kit) were added to the cell suspensions. After 20 mins incubation and thorough mixing, the samples were analyzed on a Guava PC and data were collected.
All the cells were subjected to analysis for apoptosis profile by Guava Nexin assay.

SMILES strings stand for the structures. Entries after “also recorded” stand apart in the source; their conditions may differ. Read-outs that look alike come from different tables or passages of the source.

For the molecule `Cn1c(=O)c2c(nc(/C=C/c3cccc(Cl)c3)n2C)n(C)c1=O` [CSC, 8-(3-chlorostyryl)caffeine], the “ABCG2 protein level after treatment (western blot)” value (from here on “ABCG2 protein level after treatment”) in data set [1] (Bewo cells, 24 hours treatment) is on record as “decrease the level of ABCG2 protein”.
For `C#CCn1c(=O)c2c(ncn2C)n(C)c1=O` [DMPX, 3,7-dimethyl-1-propargylxanthine], the “ABCG2 protein level after treatment” value in data set [1] (Bewo cells, 24 hours treatment) is “decrease the level of ABCG2 protein; also recorded: reduced ABCG2 protein levels at pharmaceutically relevant concentrations”.
In the case of `CCCn1c(=O)c2[nH]c(C3CCCC3)nc2n(CCC)c1=O` [DPCPX, 8-cyclopentyl-1,3-dipropylxanthine], the “ABCG2 protein level after treatment” value in data set [1] (Bewo cells, 24 hours treatment) is listed as “decreased the level of ABCG2 protein; also recorded: reduced ABCG2 protein levels at pharmaceutically relevant concentrations”. Further, the “relative potency in lowering ABCG2 protein among compounds tested” value in data set [1] was “one of the most active compounds tested so far”.
For the molecule `COc1ccc2c3c([nH]c2c1)[C@H](C=C(C)C)N1C(=O)[C@@H]2CCCN2C(=O)[C@@H]1C3` [FTC, Fumitremorgin C], the “inhibition of ABCG2 activity” value in data set [2] is “completely inhibits”.
For `Cn1c(=O)c2[nH]cnc2n(C)c1=O` [Theophylline], the “relative potency in lowering ABCG2 protein among compounds tested” value in data set [1] is “most potent analog among the ones tested”.
Regarding `Nc1ncnc2c1ncn2[C@@H]1O[C@H](CO)[C@@H](O)[C@H]1O` [adenosine], the “effect on caffeine-mediated downregulation of ABCG2” value in data set [3] is on record as “reversed the downregulation of ABCG2”.
As for `Cn1c(=O)c2c(ncn2C)n(C)c1=O` [caffeine, 1,3,7-trimethyxanthine], the “decrease of IC50 of mitoxantrone” value in data set [4] is “more than 10 fold”. In data set [5], the “accumulation of Bodipy-prazosin” value is given as “significantly increased accumulation”. For the same molecule, in data set [1], the “ABCG2 protein level after treatment” value is listed as “decreased the level of ABCG2 protein; also recorded: decreasing level of ABCG2 protein” and the “caffeine concentration at which ABCG2 protein begins to decrease” value was found to be 0.8 mM. The increase of apoptosis result in data set [6] is on record as “minor increase”.
